Data set [1] concerns nicotine triggered release of CGRP in tracheal tissue. Description: nicotine triggered CGRP release in mouse tracheal tissue. The class given is cell-based. Here is the method: Mouse tracheal tissue samples are treated with N-Hexanoylnornicotine (10 μM) for 10 minutes. After five minutes of exposure, Nicotine (100 μM) is added to the tracheal tissue samples for the remaining five minutes of N-Hexanoylnornicotine exposure. CGRP release is measured for 15 minutes starting at the time point of N-Hexanoylnornicotine exposure. Control samples are exposed to Nicotine (100 μM) without the addition of N-Hexanoylnornicotine. […]
(§1) FIGS. 2-8 show the results of studies on the effect of acyl nornicotine on nicotine triggered release of CGRP. CGRP is a biomarker of sensory irritation, specifically a marker of neurogenic inflammation. Tracheal or buccal mouse tissue samples were each treated with N-Hexanoylnornicotine or N-Octanoylnornicotine prior to exposure to nicotine or potassium chloride (KCl), used as a control. The test compounds were provided in a synthetic interstitial fluid and the release of CGRP was measured.

In data set [2] the test system is tracheal potassium chloride (KCl) response. As to the kind of experiment: KCl triggered CGRP release in mouse tracheal tissue (control). The class given is cell-based. The note with it: 10 μM compound, KCl 60 mM, FIG. 3. Here is the method: As in FIG. 2, mouse tracheal tissue samples are treated with N-Hexanoylnornicotine (10 μM) for 10 minutes. After five minutes of exposure, KCl (60 mM) is added to the tracheal tissue samples for the remaining five minutes N-Hexanoylnornicotine exposure. CGRP release is measured for 15 minutes starting at the time point of N-Hexanoylnornicotine exposure. Control samples are exposed to KCl (60 mM) without the addition of N-Hexanoylnornicotine.
as §1

Data set [3] addresses T1, human nicotinic acetylcholine receptor α3β4 (nACHR α3β4) (Homo sapiens, UniProt P30926+P32297).
T1 construct: expressed in transfected cells; host or cells: HEK293
Description: calcium influx in HEK293 cells expressing nACHR α3β4, co-applied with nicotine. The class given is cell-based. Here is the method: Human cell line HEK293 were designed to express human nicotinic acetylcholine receptor α3β4 (nACHR α3β4), which is a receptor associated with sensory irritation. These cells were plated on 96 well plates and acyl nornicotines were co-applied with a concentration of nicotine sufficient to yield 100% cell activation of the receptor. The influx of calcium into the cell is measured as an indicator of receptor activation.

The test system of data set [4] is nicotine triggered release of CGRP in buccal tissue. As to the kind of experiment: nicotine triggered CGRP release in mouse buccal tissue. Conditions: for effect on buccal nicotine response (CGRP release): 20 mM compound, Nicotine 20 mM, equimolar, FIG. 8. The class given is cell-based. Here is the method: Mouse buccal tissue samples are treated with 10 μM or 1 μM of N-Hexanoylnornicotine for 10 minutes. After five minutes of exposure, Nicotine (10 mM) is added to the buccal tissue samples for five minutes. CGRP release is measured for 15 minutes starting at the time point of N-Hexanoylnornicotine exposure. Control samples are exposed to Nicotine (10 mM) without the addition of N-Hexanoylnornicotine.
Mouse buccal tissue samples were treated with N-Hexanoylnornicotine (20 mM) or N-Octanoylnornicotine (20 mM) for 10 minutes. After 5 minutes of exposure, Nicotine (20 mM) was added to the […] tissue samples for five minutes. CGRP release is measured for 20 minutes starting five minutes prior to the time point of N-Octanoylnornicotine and N-Hexanoylnornicotine exposure. Control samples are exposed to Nicotine (20 mM) without the addition of N-Octanoylnornicotine or N-Hexanoylnornicotine.
as §1

Data set [5] can be described thus: half-tongue test: acyl nornicotine pre-treatment before nicotine solution. The class given is in vivo, human. Here is the method: The effect of pre-treatment with acyl nornicotine on sensory irritation from nicotine was tested using half-tongue test. N-Octanoylnornicotine was applied to tongues of human volunteers prior to application of a nicotine solution. Randomized sides of tongues were selected for application of liquid test sample or liquid control sample on filter paper. The liquid test sample or liquid control sample was applied to one side of a subject's tongue or the other. Blinded N-Octanoylnornicotine or water on filter paper was applied to the subject's tongue for 2 minutes, and then removed. […] After a 30 second wait, filter papers with added nicotine solutions were applied to the spots on the tongue where the pre-treatment filter papers had been applied. Over the following 2 minutes, subjects were asked to note sensory perceptions. Samples containing N-Octanoylnornicotine were at 10% of the level of the nicotine challenge samples.

The mark [6] stands for this setting: HEK293 nACHR α3β4, calcium influx.

The values below come from patent US12185750B2, “Acyl nornicotines reduce sensory irritation in tobacco and nicotine products” (Altria Client Services LLC, priority 2015, dated 2025).

Where two headings read alike, the source gives them in different places.

T1 sequence (P32297 32-505): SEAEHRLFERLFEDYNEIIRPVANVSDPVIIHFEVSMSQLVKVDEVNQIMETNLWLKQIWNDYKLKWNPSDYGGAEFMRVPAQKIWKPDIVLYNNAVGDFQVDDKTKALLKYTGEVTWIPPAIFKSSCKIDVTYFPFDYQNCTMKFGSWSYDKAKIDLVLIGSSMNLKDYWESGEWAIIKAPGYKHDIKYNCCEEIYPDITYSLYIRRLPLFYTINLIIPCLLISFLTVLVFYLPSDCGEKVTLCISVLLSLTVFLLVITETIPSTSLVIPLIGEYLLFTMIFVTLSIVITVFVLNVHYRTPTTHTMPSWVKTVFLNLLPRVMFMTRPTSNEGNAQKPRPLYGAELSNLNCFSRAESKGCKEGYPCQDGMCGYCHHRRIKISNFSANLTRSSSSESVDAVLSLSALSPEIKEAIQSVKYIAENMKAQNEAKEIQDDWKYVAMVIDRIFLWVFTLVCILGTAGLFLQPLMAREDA
T1 sequence (P30926 22-498): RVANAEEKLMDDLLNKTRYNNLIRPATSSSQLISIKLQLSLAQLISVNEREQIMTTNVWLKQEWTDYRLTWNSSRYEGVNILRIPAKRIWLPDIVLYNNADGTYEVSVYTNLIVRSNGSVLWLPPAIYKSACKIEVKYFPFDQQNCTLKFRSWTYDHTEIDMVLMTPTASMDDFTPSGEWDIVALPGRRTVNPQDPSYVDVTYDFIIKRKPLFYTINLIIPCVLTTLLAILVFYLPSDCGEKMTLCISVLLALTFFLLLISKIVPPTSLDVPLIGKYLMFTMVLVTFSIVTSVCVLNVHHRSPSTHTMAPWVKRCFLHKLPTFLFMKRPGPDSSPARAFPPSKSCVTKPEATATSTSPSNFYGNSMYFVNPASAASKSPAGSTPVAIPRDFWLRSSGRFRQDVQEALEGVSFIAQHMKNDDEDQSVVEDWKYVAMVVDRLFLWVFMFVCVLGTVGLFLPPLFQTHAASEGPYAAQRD

In general, IC50 refers to the concentration that gives 50% inhibition. For the molecule `CCCCCC(=O)N1CCCC1c1cccnc1` (stereo not drawn) [N-Hexanoylnornicotine], the “effect on specific tracheal nicotine response (CGRP release)” value in data set [1] (10 μM compound, Nicotine 100 μM, FIG. 2) is given as “abolishes the specific tracheal nicotine response”. In data set [1] (10 μM compound, Nicotine 10 mM, FIG. 4), the “effect on tracheal supramaximal nicotine response (TRPA1/V1 mediated, CGRP release)” value is on record as “does not change the tracheal supramaximal nicotine response”. In addition, the “effect on tracheal KCl response (CGRP release)” value in data set [2] is reported as “does not change the KCl response”. Also, the calcium influx inhibited in data set [3] (1:1 acyl nornicotine:nicotine) was 100%; in data set [3] (1:10 acyl nornicotine:nicotine), 50%. Besides, the “Activation (threshold)” value in data set [3] (setting [6]) turned out to be 10 mM. Besides, the IC50 in data set [3] (HEK293 nACHR α3β4, calcium influx, v 70 μM nicotine, read-out: Inhibition (IC50 v 70 μM nicotine)) was 5000 nM. For the same molecule, the “effect on buccal supramaximal nicotine response (TRPA1/V1 mediated, CGRP release)” value in data set [4] (10 μM compound, Nicotine 10 mM, FIG. 5) is on record as “does not change the buccal supramaximal nicotine response”. For the same molecule, the “effect on buccal nicotine response (CGRP release)” value in data set [4] was “prevent the buccal nicotine response”.
With `CCCCCCCC(=O)N1CCCC1c1cccnc1` (stereo not drawn) [N-Octanoylnornicotine], in data set [1] (100 μM compound, Nicotine 100 μM, equimolar, FIG. 6), the “effect on specific tracheal nicotinic response (CGRP release)” value is recorded as “abrogates the specific tracheal nicotinic response”. For the same molecule, the “effect on basal tracheal response (CGRP release)” value in data set [1] (100 μM compound, before nicotine, FIG. 6) is listed as “lowers basal tracheal nicotine response”. In addition, the “effect on specific and supramaximal tracheal nicotine response (CGRP release)” value in data set [1] (10 mM compound, Nicotine 10 mM, equimolar, FIG. 7) is “abrogates the specific and supramaximal nicotine response”. The “relative potency, C8 versus C6 acyl nornicotine” value is recorded as “more potent than a shorter chain (C6) acyl nornicotine” in data set [1] (CGRP release in mouse tissue (tracheal/buccal not specified)) and “more potent than shorter chain (C6) acyl nornicotine” in data set [3] (calcium influx, co-applied with nicotine). Also, in data set [3], the IC50 was 500 nM. Moreover, the calcium influx inhibited is 100% in data set [3] (1:10 acyl nornicotine:nicotine) and 50% in data set [3] (1:100 acyl nornicotine:nicotine). Also, the “Activation (threshold)” value in data set [3] (setting [6]) was determined as 1 mM. Further, the “sensation from the compound itself on the tongue” value in data set [5] (applied on filter paper for 2 minutes, human volunteers) was “tingling or burning sensation”. The “irritation/burn from nicotine after pre-treatment” value in data set [5] (compound at 10% of the level of the nicotine challenge, versus water side) is given as “obvious reduction in irritation/burn”. The “effect on buccal nicotine response (CGRP release)” value in data set [4] is on record as “prevent the buccal nicotine response”.
